Data taken from patent publication US20250268429A1, “Fluid Dispenser With Automatic Fluid Composition Adjustment” (OP-HYGIENE IP GmbH, priority 2024, published 2025).

Test system: Bacillus subtilis spores
Assay: in vitro killing of Bacillus subtilis spores by foam compositions (LOG reduction factor, CFU count)
Type: cell-based
Settings: conclusion from Table 3
Protocol: The compositions of Foams 1 to 6 are the same as in Table 1. Foam 7 contained 70% isopropanol.
In the in vitro experiments summarized above, the following method was used: the bacterial culture was serially diluted (1 LOG); the tested foam was added to 50 μL of the diluted solution and stirred for 15 seconds; the resulting mixture was transferred to an agar plate and incubated for 24 hours before counting the bacterial colonies (CFUs). The LOG reduction factor was calculated as the LOG bacteria before treatment minus the LOG bacteria after treatment.

With `CC(C)O` [Isopropanol, isopropanol] the “effectiveness at killing Bacillus subtilis spores (in words)” value was “not effective”.
